Reference: the supplement of paper PMC8960247
Where a name gives a salt, the structure may show the parent alone. ± gives the standard error.

Key:
621-102 (TSC2-deficient) = test: relative viability vs DMSO; higher = less cytotoxic; conditions: serum: 10% FBS, 72 h
621-103 (TSC2-rescued) = test: as above; conditions: serum: 10% FBS, 72 h
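Note: immortalized renal angiomyolipoma cells stably carrying empty vector or TSC2, dosed in 384-well plates in DMEM, viability normalized to vehicle-treated wells within each plate.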

| SMILES | relative viability (621-102 (TSC2-deficient); 0.0001 µM) [%] | relative viability (621-102 (TSC2-deficient); 0.001 µM) [%] | relative viability (621-102 (TSC2-deficient); 0.01 µM) [%] | relative viability (621-102 (TSC2-deficient); 0.1 µM) [%] | relative viability (621-102 (TSC2-deficient); 1 µM) [%] | relative viability (621-102 (TSC2-deficient); 10 µM) [%] | relative viability (621-103 (TSC2-rescued); 0.0001 µM) [%] | relative viability (621-103 (TSC2-rescued); 0.001 µM) [%] | relative viability (621-103 (TSC2-rescued); 0.01 µM) [%] | relative viability (621-103 (TSC2-rescued); 0.1 µM) [%] | relative viability (621-103 (TSC2-rescued); 1 µM) [%] | relative viability (621-103 (TSC2-rescued); 10 µM) [%] |
| --- | --- | --- | --- | --- | --- | --- | --- | --- | --- | --- | --- | --- |
| COc1ccc([C@]2(C#N)CC[C@@H](C(=O)O)CC2)cc1OC1CCCC1 | 96.5 ± 2.4 | 102.9 ± 0.13 | 95.4 ± 2.6 | 102 ± 2.7 | 105 ± 1.7 | 98.6 ± 0.28 | 102.2 ± 0.093 | 98 ± 0.98 | 97.1 ± 1.8 | 106.2 ± 0.53 | 93.85 ± 0.76 | 93.4 ± 2.3 |
| CN(C)CCCN1c2ccccc2Sc2ccc(Cl)cc21 [Chlorpromazine HCl] | 88.27 ± 0.79 | 87.9 ± 6.9 | 93.3 ± 8.6 | 101 ± 8.9 | 101 ± 7.6 | 81.9 ± 3.2 | 97.7 ± 3.2 | 92.6 ± 5.6 | 95.67 ± 0.89 | 102 ± 6.1 | 91.8 ± 4.6 | 63.7 ± 4.6 |
| NC(=O)c1cccc(-c2cccc(OC(=O)NC3CCCCC3)c2)c1 [URB597] | 104.9 ± 0.41 | 107 ± 7 | 109.5 ± 0.46 | 98.4 ± 2.9 | 99.6 ± 4.4 | 92.7 ± 5.8 | 103 ± 3.1 | 106 ± 3.3 | 103 ± 1.4 | 106 ± 2.8 | 104 ± 4 | 112.8 ± 0.77 |
| Clc1ccc(C(Cn2ccnc2)OCc2c(Cl)cccc2Cl)c(Cl)c1 (stereo not given) [Isoconazole] | 104 ± 1.2 | 107 ± 2.4 | 86.81 ± 0.67 | 108.4 ± 0.37 | 107 ± 1.4 | 100 ± 4.3 | 104 ± 2.4 | 109 ± 4 | 105 ± 1 | 103.2 ± 0.24 | 108 ± 1.4 | 95.32 ± 0.49 |
| O=C1NC(=O)/C(=C\c2ccc3nccnc3c2)S1 | 106 ± 1.9 | 114 ± 1.2 | 120.5 ± 1.1 | 108 ± 7.8 | 105.2 ± 0.38 | 110 ± 3.2 | 100.2 ± 0.99 | 96.5 ± 2.7 | 98.02 ± 0.75 | 100 ± 1.5 | 99.5 ± 1.9 | 98.8 ± 1.3 |
| O=C(Nc1cccnc1)N1CCC(Cc2cccc(Oc3ccc(C(F)(F)F)cn3)c2)CC1 [PF-3845] | 104 ± 3.4 | 103 ± 2.9 | 104 ± 1.5 | 102.11 ± 0.087 | 102 ± 3.6 | 98.8 ± 1.6 | 110 ± 5.4 | 116 ± 8.3 | 112.64 ± 0.013 | 109 ± 4.7 | 116.1 ± 0.73 | 103 ± 1.1 |
| COc1cc(OC)c(/C=C/S(=O)(=O)Cc2ccc(OC)c(NCC(=O)O)c2)c(OC)c1 | 109 ± 2.7 | 109 ± 2.2 | 103.2 ± 0.43 | 97.9 ± 1.3 | 42 ± 1.4 | 30.9 ± 0.31 | 100.5 ± 0.4 | 99 ± 1.7 | 98.7 ± 1.2 | 97.9 ± 1.8 | 47.98 ± 0.052 | 24.1 ± 0.81 |
| CCCc1nc(C)c2c(=O)nc(-c3cc(S(=O)(=O)N4CCN(CC)CC4)ccc3OCC)[nH]n12 [Vardenafil (Vivanza)] | 103 ± 2.4 | 104 ± 1.2 | 104 ± 3.8 | 104.8 ± 0.49 | 96.25 ± 0.9 | 97.2 ± 1.1 | 101 ± 2.4 | 103.3 ± 0.7 | 105 ± 1.5 | 104 ± 1.1 | 98.5 ± 4.4 | 98.6 ± 1.7 |
| COC(=O)C1=C(C)NC(C)=C(C(=O)OCC(C)C)C1c1ccccc1[N+](=O)[O-] (stereo not given) [Nisoldipine] | 100 ± 4.6 | 95.6 ± 4.7 | 104.6 ± 0.62 | 106.7 ± 0.045 | 111 ± 2.9 | 65.91 ± 0.65 | 110 ± 5.8 | 109 ± 7.6 | 108 ± 4 | 111 ± 6.1 | 100 ± 2.3 | 67.8 ± 4.5 |
| CC(C)(C)c1cc(NC(=O)Nc2ccc(-c3cn4c(n3)sc3cc(OCCN5CCOCC5)ccc34)cc2)no1 [AC-220] | 81.8 ± 3.2 | 84.77 ± 0.0088 | 87.3 ± 3.6 | 84.9 ± 5.7 | 70.1 ± 1.2 | 53.1 ± 3 | 96.29 ± 0.69 | 98 ± 1.9 | 99.4 ± 2.7 | 97.8 ± 2.8 | 76.5 ± 4.7 | 44.7 ± 1.2 |
